Test results taken from article PMC11189516, “Structure-guided conversion from an anaplastic lymphoma kinase inhibitor into Plasmodium lysyl-tRNA synthetase selective inhibitors” (Communications Biology, 2024).
Several values for one entry are separate records, joined by “and”; a condition that tells them apart may be missing. Equal entries are not always repeated. Where two headings read alike, the source gives them in different places.

Assays:
PfLysRS [1] = target: T1, PfLysRS (Plasmodium falciparum, UniProt Q8IDJ8); experiment: Thermal shift assay; type: binding
T1 construct: PfLysRS (77–583) was constructed in the vector pET20b, with a C-terminal 6×His tag; 6xHis (C); made in house; host or cells: E. coli BL21 (DE3)
Method: PfLysRS protein was prepared at 10 μM concentration in a buffer containing 20 mM Tris pH 8.0, 200 mM NaCl, 500 μM L-lysine, and 200 μM Compound. Aliquots (18 µL) were added to a 96-well PCR plate and incubated at ambient temperature for 10 min. SYPRO Orange dye (Sigma) was diluted in the assay buffer containing 20 mM Tris pH 8.0 and 200 mM NaCl to a 40× concentration, and 2 µL of the 40× dye solution was added to the PCR plate to bring the final assay volume to 20 µL. After complete mixing, the final solutions were heated from 25 to 90 °C at a rate of 0.015 °C per sec, and fluorescence signals were monitored by QuantStudio 3 (Applied Biosystems by Thermo Fisher Scientific).

PfLysRS [2] = target: T1, PfLysRS; experiment: Surface plasmon resonance (SPR) assay; type: binding; details: immobilized PfLysRS
Method: PfLysRS was chemically immobilized on a Biacore CM5 sensorchip (immobilization level ~20000 resonance unit/RU) at pH 5.0 according to the immobilization kit (GE Healthcare). PfLysRS (1.7 nM) was captured for 90 s at a flow of 30 µL·min^−1. Affnity between PfLysRS and compounds was measured by SPR on a Biacore 8 K (GE Healthcare) at 25 °C with a running buffer (0.02 M phosphate buffer pH 7.4, 2.7 mM KCl, 0.137 M NaCl, 0.05% Tween 20, with 1 mM L-lysine). The association time was 90 s, the dissociation time was 120 s, and the flowrate was 30 µL·min^−1. Kinetic evaluation of the interaction between LysRS and compounds was performed by global fitting of the data to a 1:1 interaction model using Biacore Evaluation Software 3.1 (GE Healthcare).

PfLysRS [3] = target: T1, PfLysRS; experiment: ATP hydrolysis assay (Kinase-Glo) on PfLysRS; type: biochemical
Method: (§1) The ATP hydrolysis assays were based on Kinase-Glo luminescent Kit (Promega). The experiment was carried out in Corning 384-well white flat bottom microplates. The buffer in the reaction contains 25 mM Hepes pH 7.4, 140 mM NaCl, 40 mM MgCl2, 30 mM KCl, 1 mM TCEP, 0.1 mg·mL^−1 BSA, and 0.004% Tween-20. The compounds were diluted to different concentrations with a 5-fold gradient.
(§2) For LysRS assays, DMSO was added into negative control wells and L-lysine was removed in positive control wells. 100 nM LysRS in 2.5 μL Hepes buffer was mixed with compounds and incubated for 10 min. Then 5 μL substrate mixture (2 μM ATP, 10 μM L-lysine and 31 nM pyrophosphatase) was added to start the reaction at 37 °C and incubated for 6 h.
(§3) When the reaction reaches the planned time, 10 μL diluted Kinase-Glo reagent (1/50 diluted with a buffer containing 50 mM Tris pH 7.5 and 5% glycerol) was added and incubated for 15 min. Luminescence was measured on the Magellan plate reader (Tecan) and nonlinear regression was performed with Prism (GraphPad).

HsLysRS = target: T2, HsLysRS (Homo sapiens, UniProt Q15046); experiment: ATP hydrolysis assay (Kinase-Glo) on HsLysRS; type: biochemical
T2 construct: HsLysRS (70–581) was constructed in the vector pET20b with a C-terminal 6×His tag; 6xHis (C); made in house; host or cells: E. coli (pET20b; 'purified similarly' to PfLysRS, which was expressed in BL21 (DE3))
Method: as §1, §2, §3

ALK = target: T3, ALK (Homo sapiens, UniProt Q9UM73); experiment: ATP hydrolysis assay (Kinase-Glo) on ALK; type: biochemical
T3 construct: The plasmid pCDNA3.1_8×His-tev-ALK (kinase domain, 1068–1410) was constructed; 8xHis (N); TEV site (N); made in house; host or cells: Expi293 cells (transient transfection)
Method: as §1
For ALK assays, DMSO was added into negative control wells. 100 nM ALK in 2.5 μL Hepes buffer was mixed with compounds and incubated for 10 min. Then 5 μL substrate (2 μM ATP) was added to start the reaction at 37 °C and incubated for 6 h.
as §3

[4] = tested on: erythrocytic-stage P. falciparum 3D7 parasites; experiment: In vitro Plasmodium growth assay; type: cell-based, Plasmodium falciparum
Method: Parasites were cultured in human O+ erythrocytes according to standard procedures. To prepare the >80% ring stage parasites, asynchronous cultures of parasites were pretreated with 5% sorbitol, and P. falciparum strain 3D7 at the mid-ring stage (6–10 h post-invasion) was used to test antimalarial effects in 96-well plates. Parasites were incubated in a 96-well plate with compound containing 1% parasitemia and, 2% hematocrit for a total volume of 200 μL. […] A relevant DMSO concentration was used as a negative control, and cultured erythrocytes without Plasmodium served as a positive control. The parasites were allowed to grow for 72 h at 37 °C with 5% CO2, 5% O2, and 90% N2. After 72 h, 100 μL of lysis buffer (0.12 mg·mL^−1 Saponin, 0.12% Triton X-100, 30 mM Tris-HCl pH 8.0, and 7.5 mM EDTA) with 5× SYBR Green I (Invitrogen; supplied in 10000× concentration) was added to each well of the plate. The plates were then incubated for 2 h in the dark prior to reading the fluorescence signal at 485 nm excitation and 535 nm emission. The percentage of inhibition was calculated by (NC-fluorescence) × 100/(NC-PC).

[5] = +Lysine, sheet Figure 6B, in °C (unit assumed)

T1 sequence (Q8IDJ8 entry or part of it): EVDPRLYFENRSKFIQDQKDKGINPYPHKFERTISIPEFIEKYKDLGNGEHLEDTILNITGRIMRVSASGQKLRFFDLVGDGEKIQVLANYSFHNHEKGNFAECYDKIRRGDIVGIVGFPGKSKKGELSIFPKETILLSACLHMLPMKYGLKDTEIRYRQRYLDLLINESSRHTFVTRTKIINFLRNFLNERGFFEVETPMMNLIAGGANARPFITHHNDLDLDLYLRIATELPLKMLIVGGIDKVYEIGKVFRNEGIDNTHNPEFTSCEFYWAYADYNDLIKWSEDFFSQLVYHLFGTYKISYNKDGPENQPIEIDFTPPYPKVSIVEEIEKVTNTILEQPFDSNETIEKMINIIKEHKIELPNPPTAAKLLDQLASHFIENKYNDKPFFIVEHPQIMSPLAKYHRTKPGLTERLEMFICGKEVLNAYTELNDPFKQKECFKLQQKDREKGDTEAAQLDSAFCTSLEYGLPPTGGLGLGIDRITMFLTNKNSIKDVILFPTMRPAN
T2 sequence (Q15046 70-581): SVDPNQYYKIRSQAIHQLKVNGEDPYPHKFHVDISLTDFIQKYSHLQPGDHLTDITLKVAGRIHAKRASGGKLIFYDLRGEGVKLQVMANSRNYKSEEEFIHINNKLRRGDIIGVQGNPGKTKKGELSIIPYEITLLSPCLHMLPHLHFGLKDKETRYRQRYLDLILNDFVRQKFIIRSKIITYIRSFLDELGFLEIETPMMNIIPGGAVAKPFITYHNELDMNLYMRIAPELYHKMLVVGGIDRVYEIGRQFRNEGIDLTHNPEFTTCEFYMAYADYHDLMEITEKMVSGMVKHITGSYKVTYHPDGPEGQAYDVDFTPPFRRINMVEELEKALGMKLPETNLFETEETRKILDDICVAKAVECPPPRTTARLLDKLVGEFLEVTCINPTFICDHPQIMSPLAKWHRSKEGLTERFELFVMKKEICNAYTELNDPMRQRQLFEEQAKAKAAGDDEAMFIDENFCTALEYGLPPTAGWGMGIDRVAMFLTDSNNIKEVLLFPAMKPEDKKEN
T3 sequence (Q9UM73 1068-1410): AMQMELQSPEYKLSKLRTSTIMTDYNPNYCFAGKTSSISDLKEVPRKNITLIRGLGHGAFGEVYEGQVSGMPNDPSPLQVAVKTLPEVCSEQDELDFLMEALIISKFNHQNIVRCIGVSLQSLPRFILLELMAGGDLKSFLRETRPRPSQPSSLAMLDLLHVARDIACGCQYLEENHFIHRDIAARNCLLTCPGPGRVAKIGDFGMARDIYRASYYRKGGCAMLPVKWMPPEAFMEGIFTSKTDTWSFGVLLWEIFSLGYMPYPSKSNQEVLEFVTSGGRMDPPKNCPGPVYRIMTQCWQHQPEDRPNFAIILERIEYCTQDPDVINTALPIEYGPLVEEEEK

COc1ccc(OC)c(Nc2ncnc(Nc3ccccc3S(=O)(=O)C(C)C)n2)c1 [Compound 36]
Tm of PfLysRS, Average (PfLysRS [1]; +Lysine): 54.438 °C
Tm of PfLysRS, single repeat (PfLysRS [1]; +Lysine): 54.731 °C and 54.237 °C and 54.854 °C and 53.929 °C
△Tm of PfLysRS (PfLysRS [1]; +Lysine, sheet Figure 6B): 10.644
Tm of PfLysRS, Average (PfLysRS [1]; [5]): 55.664
Tm of PfLysRS, single repeat (PfLysRS [1]; [5]): 55.710 and 55.464 and 56.018
Tm of PfLysRS, Average (PfLysRS [1]; -Lysine): 53.158 °C
Tm of PfLysRS, single repeat (PfLysRS [1]; -Lysine): 53.374 °C and 52.819 °C and 53.251 °C and 53.189 °C
ΔTm at 200 µM (PfLysRS [1]; in the absence of L-lysine): 11.7 °C
ΔTm at 200 µM (PfLysRS [1]; in the presence of L-lysine): 11.8 °C
koff (PfLysRS [2]): 0.0144 s⁻¹
kon (PfLysRS [2]): 907000 M/s
Kd (PfLysRS [2]; 1 mM L-lysine in running buffer, read-out: dissociation constant (KD)): 15.9 nM
HillSlope (best-fit value) (PfLysRS [3]; PfLysRS): 1.442
LogIC50 (best-fit value) (PfLysRS [3]; PfLysRS, log of nM): 2.296
IC50 (PfLysRS [3]; PfLysRS, source data, read-out: IC50 (best-fit value)): 198 nM
IC50 (PfLysRS [3]; read-out: IC50 against PfLysRS): 198 nM
HillSlope (best-fit value) (HsLysRS; HsLysRS): 0.3683
% Inhibition (HsLysRS; HsLysRS, Log(Concentration)/nM 1.806, single repeats): 3.227% and 2.137% and -5.363%
% Inhibition (HsLysRS; HsLysRS, Log(Concentration)/nM 2.505, single repeats): 19.3% and 12.84% and 21.95%
% Inhibition (HsLysRS; HsLysRS, Log(Concentration)/nM 3.204, single repeats): 37.3% and 27.64% and 28.87%
% Inhibition (HsLysRS; HsLysRS, Log(Concentration)/nM 3.903, single repeats): 26.36% and 22.16% and 26.38%
% Inhibition (HsLysRS; HsLysRS, Log(Concentration)/nM 4.602, single repeats): 50.64% and 39% and 42.59%
% Inhibition (HsLysRS; HsLysRS, Log(Concentration)/nM 5.301, single repeats): 74.45% and 64.99% and 63.03%
LogIC50 (best-fit value) (HsLysRS; HsLysRS, log of nM): 5.258
IC50 (HsLysRS; HsLysRS, source data, read-out: IC50 (best-fit value)): 181000 nM
IC50 (HsLysRS; read-out: IC50 against HsLysRS): > 181000 nM
HillSlope (best-fit value) (ALK; ALK): 0.6864
LogIC50 (best-fit value) (ALK; ALK, log of nM): 4.281
IC50 (ALK; ALK, source data, read-out: IC50 (best-fit value)): 19100 nM
IC50 (ALK; read-out: IC50 against ALK): > 19100 nM
% Inhibition ([4]; P. falciparum 3D7, Log(Concentration)/nM 2.290, single repeats): -1.297% and 4.596% and -3.299%
% Inhibition ([4]; P. falciparum 3D7, Log(Concentration)/nM 2.592, single repeats): 14.49% and 16.27% and 6.82%
% Inhibition ([4]; P. falciparum 3D7, Log(Concentration)/nM 2.893, single repeats): 56.52% and 50.3% and 49.85%
% Inhibition ([4]; P. falciparum 3D7, Log(Concentration)/nM 3.193, single repeats): 89.44% and 83.77% and 86.88%
% Inhibition ([4]; P. falciparum 3D7, Log(Concentration)/nM 3.496, single repeats): 95.44% and 97.78% and 98.22%
% Inhibition ([4]; P. falciparum 3D7, Log(Concentration)/nM 3.796, single repeats): 97.55% and 97.66% and 100.2%
% Inhibition ([4]; P. falciparum 3D7, Log(Concentration)/nM 4.097, single repeats): 99.56% and 100.2% and 100.1%
% Inhibition ([4]; P. falciparum 3D7, Log(Concentration)/nM 4.398, single repeats): 98.55% and 100.8% and 100.2%
% Inhibition ([4]; P. falciparum 3D7, Log(Concentration)/nM 4.699, single repeats): 98.67% and 100.8% and 100.6%
% Inhibition ([4]; P. falciparum 3D7, Log(Concentration)/nM 5.000, single repeats): 90.1% and 96% and 96.11%
HillSlope (best-fit value) ([4]; Plasmodium falciparum 3D7): 2.726
LogIC50 (best-fit value) ([4]; Plasmodium falciparum 3D7, log of nM): 2.867
IC50 ([4]; Plasmodium falciparum 3D7, source data, read-out: IC50 (best-fit value)): 736 nM
EC50 ([4]; Plasmodium falciparum, 3D7, 72 h): 736 nM
